Data taken from patent publication US3941842A, “P,P'-Disubstituted α-trichloromethylbenzylanilines” (priority 1972, dated 1976).
“Also recorded” adds a separate entry of the source.

How the values were obtained:
Salt-marsh caterpillar = assay: Metabolism of 3H-ethoxyaniline by salt-marsh caterpillar larvae; details: 24 hr after feeding 0.5 mg 3H-ethoxyaniline (compound III)
Experimental: (§1) The compounds of the present invention were tested for insecticidal activity by standard methods, and compared with the insecticidal activities of DDT and symmetrical analogs of DDT, such methoxychlor. Toxicological methods for the determination of the topical LD50 values to adult female SNAIDM and RSP houseflies, Musca domestica L. and to Phormia regina, and LC50 values to Culex pipiens quinquefasciatus Say, and Anopheles albimanus Weid mosquitoes were described by Metcalf el al., 44 Bull. World Health Org. 363 (1971). The methods for evaluation of metabolism by mouse liver homogenate and by female RSP housefly and salt-marsh caterpillar larvae Estigmene acrea Drury, were described by Kapoor et al., 18 J. Agr. Food Chem. 1145 (1970). The techniques for model eocsystem evluation were described by Metcalf et al., 5 J. Environ. Sci. Tech. 709 (1971).
(§2) The biodegradability of an insecticide may be measured by administering measured doses of a tritium labeled test insecticide to a subject. Some time later the subject is sacrificed, liquefied, and a sample of the liquefied insect is placed on a thin layer chromotagraphy (tlc) plate. The plate is developed in a suitable solvent and Rf values of the various compounds contained in the sample are measured against known Rf values of previously synthesized theoretical metabolic breakdown products. The amount of each metabolite present may thus be measured by measuring the ^3 H at each separately resolved spot on the tlc plate. A permanent record may be made by exposing film to the plate to form a ratioautograph.

[1] = Model ecosystem: distribution, ecological magnification and Biodegradability Index
Source text: After the amounts of the various metabolites have been calculated and a determination is made as to which of the metabolites are to be designated as "polar" and which are to be designated as "non-polar", a Biodegradability Index (amount of polar metabolites/amount of nonpolar metabolites) may be calculated. Remembering that nonpolar compounds, such as DDT are readily soluble in the fatty tissues, but are not readily soluble in water based solutions, and that the cell fluid is essentially a water based solution, the lower the Biodegradability Index, the lower the amount of biodegradability of the compound. The higher the amount of polarity, the greater the likelihood that the polar compound will dissolve in water, a very polar compound, and be eliminated from the cell.
The environmental fate of any new pesticide is a factor of paramount importance in determining how and where it might be used. The behavior of ^3 H-α-trichloromethyl-p-ethoxybenzyl-p-ethoxyaniline has been studied by the model ecosystem technique following application of 5.0 mg. of labeled compound to Sorghum plants. A summary of
metabolites from the organisms in the model ecosystem after 33 days were
identified by cochromatography with standards of known constitution, by
appropriate chromogenic reagents, and by high-resolution mass
spectrometry. The data of Table IV indicate the O-dealkylation of
Food Chem. 1 (1972). Ethoxychlor was found in the snail to 58.6 ppm and in the fish to 0.92 ppm, along with its ethylene and the mono- and bis-phenols formed by O-dealkylation. The ecological magnification (E.M.) of ethoxychlor, defined as the ratio of the parent material in the fish to the concentration in the water, was 1500-fold as compared with an E.M. of only 0.7-fold for the ethoxyaniline.
Comparing the Biodegradability Indices (B.I.=total recovered polar metabolites/total recovered nonpolar metabolites) the values are 0.44 for ethoxychlor and 2.0 for ethoxyaniline.

Female housefly = assay: Metabolism of 3H-ethoxyaniline by female RSP housefly; details: 24 hr after topical 1.0 μg 3H-ethoxyaniline (compound III)
Experimental: as §1, §2

[2] = Metabolism of 3H-labeled compound by mouse liver homogenate; details: 0.01 μM 3H-labeled compound III, 1 hr incubation, NADPH and nicotinamide
Experimental: as §1, §2

[3] = system: multifunction oxidase (MFO) enzymes; details: background; cited from earlier work
[4] = cited from earlier work
insects = details: background; cited from earlier work
[5] = 33 days, 5.0 mg 3H-ethoxyaniline to Sorghum
[6] = model ecosystem, Kapoor et al., 20(1) J. Agr. Food Chem. 1 (1972)

CCOc1ccc(C(=O)C(Cl)Cl)cc1 [C2 H5 OC6 H4 C(O)CHCl2, p-ethoxydichloroacetophenone]
Salt-marsh caterpillar, percent 3H in Excreta (Salt-marsh caterpillar): 3.1%
Salt-marsh caterpillar, percent 3H in Homogenate (Salt-marsh caterpillar): 8.7%
Concentration of ethoxyaniline equivalents in Gambusia (fish) [1, 5]: 0.28 ppm
Concentration of ethoxyaniline equivalents in Oedogonium (algae) [1, 5]: 0.3 ppm
Concentration of ethoxyaniline equivalents in Physa (snail) [1, 5]: 3.542 ppm
Female housefly, percent 3H in Excreta (Female housefly): 9.7%
Female housefly, percent 3H in Homogenate (Female housefly): 10.4%

CCOc1ccc(N)cc1 [C2 H5 OC6 H4 NH2, p-ethoxyaniline]
Salt-marsh caterpillar, percent 3H in Excreta (Salt-marsh caterpillar): 8.4%
Salt-marsh caterpillar, percent 3H in Homogenate (Salt-marsh caterpillar): 15.0%
Concentration of ethoxyaniline equivalents in Culex (mosquito) ([1]; Culex (mosquito), 33 days, 5.0 mg 3H-ethoxyaniline to Sorghum): 0.01 ppm
Concentration of ethoxyaniline equivalents in Gambusia (fish) [1, 5]: 0.03 ppm
Concentration of ethoxyaniline equivalents in H2O ([1]; H2O, 33 days, 5.0 mg 3H-ethoxyaniline to Sorghum): 0.053 ppm
Concentration of ethoxyaniline equivalents in Oedogonium (algae) [1, 5]: 0.42 ppm
Concentration of ethoxyaniline equivalents in Physa (snail) [1, 5]: 2.556 ppm
Mouse liver, percent 3H in homogenate [2]: 13.7%
Female housefly, percent 3H in Excreta (Female housefly): 9.1%
Female housefly, percent 3H in Homogenate (Female housefly): 8.3%

Clc1ccc(C(c2ccc(Cl)cc2)C(Cl)Cl)cc1 [DDD, 1,1-dichloro-2,2-bis(p-chlorophenyl)ethane]
susceptibility to MFO enzymes (in words) [3]: do not function on DDT and its metabolic derivatives DDE and DDD

ClC(Cl)=C(c1ccc(Cl)cc1)c1ccc(Cl)cc1 [DDE, 1,1-dichloro-2,2-bis(p-chlorophenyl) ethylene]
susceptibility to MFO enzymes (in words) [3]: do not function on DDT and its metabolic derivatives DDE and DDD

CCOc1ccc(C(c2ccc(OCC)cc2)C(Cl)(Cl)Cl)cc1 [Ethoxychlor, 2,2-bis(p-ethoxyphenyl)-1,1,1-trichloroethane]
concentration found in the fish [4, 6]: 0.92 ppm
concentration found in the snail [4, 6]: 58.6 ppm
ecological magnification (E.M.) ([4]; ratio of parent material in fish to concentration in water, Kapoor et al.): 1500 fold
Biodegradability Index (B.I.) ([4]; total recovered polar/total recovered nonpolar metabolites, ethoxychlor evaluated by Kapoor et al.): 0.44
biodegradability (in words) ([1]; model ecosystem comparison): substantially biodegradable; also recorded: substantially more biodegradable than DDT

Oc1ccc(NC(c2ccc(O)cc2)C(Cl)(Cl)Cl)cc1 (stereo not drawn) [HOC6 H4 NHCH(CCl3)C6 H4 OH, α-trichloromethyl-p-hydroxybenzyl-p-hydroxyaniline]
Concentration of ethoxyaniline equivalents in Gambusia (fish) [1, 5]: 0.03 ppm
Concentration of ethoxyaniline equivalents in Physa (snail) [1, 5]: 1.512 ppm
Female housefly, percent 3H in Excreta (Female housefly): 5.7%
Female housefly, percent 3H in Homogenate (Female housefly): 8.4%

CSc1ccc(C(c2ccc(SC)cc2)C(Cl)(Cl)Cl)cc1 [methiochlor, 1,1,1-trichloro-2,2-bis-(p-methiophenyl)ethane]
insecticidal activity (in words) (insects): considerably less insecticidal activity than DDT towards other species of insects
susceptibility to MFO enzymes (in words) [3]: readily attacked by MFO enzymes

Cc1ccc(C(c2ccc(C)cc2)C(Cl)(Cl)Cl)cc1 [methylchlor, 1,1,1-trichloro-2,2-bis(p-methylphenyl)ethane]
insecticidal activity (in words) (insects): considerably less insecticidal activity than DDT towards other species of insects
